Assay results reported in paper PMC10786919, “Design-rules for stapled peptides with in vivo activity and their application to Mdm2/X antagonists” (Nature Communications, 2024).
Values after ≈ are worked out from the molar mass of the structure shown. Positions of bridges follow the written chain, without caps; N, C: chain ends. Non-standard residues stand in square brackets, D forms with d. Residues, ends and D or L forms follow the SMILES beside them. Lys(N3) = [N-]=[N+]=NCCCC[C@H](N)C(=O)O; R8 = C=CCCCCCC[C@@](C)(N)C(=O)O; Cba = N[C@@H](CC1CCC1)C(=O)O; S5 = C=CCCC[C@](C)(N)C(=O)O; βAla = NCCC(=O)O

Columns and labels:
[1] = Lactate dehydrogenase (LDH) release assay; format: cell-based; conditions: LDH: Cytotoxicity assay EC50
Summary of the method: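 Geometric means of at least three independent biological runs are given for LDH release measured in HCT116 cells stably expressing a p53-driven β-lactamase reporter. Plating density was 8000 cells/well; DMSO in wells was 0.5%.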

[2] = Solubility assay (kinetic solubility, PBS pH 7); format: physicochemical; conditions: pH 7, PBS; for solubility kinetic: pH 7, aqueous buffer, kinetic from dmso stock, read-out: Solubility
Summary of the method: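 Values derive from peak-area ratios of sample versus a 100 µM standard, scaled by that standard's concentration.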

[3] = in vitro; conditions: Nanoclick permeability assay EC50
Summary of the method: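 Azido-peptide permeability was read as loss of NanoBRET signal (donor 450 nm, acceptor 610 nm) after adding NanoBret618-azide at 10 μM final.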

[4] = physchem
[5] = Experimental LogD (partition coefficient); conditions: for logD: not stated, Partition Coeff LogD

SMILES | EC50 [1] | solubility kinetic [2] | cell entry EC50 [3] | EPSA [4] | logD [5] | Solubility [2] | Partition Coeff LogD [5]
CC(=O)N[C@@H](CCCCN=[N+]=[N-])C(=O)NCCC(=O)N[C@@H](Cc1ccc(O)cc1)C(=O)N[C@H](C(=O)N[C@@H](Cc1ccccc1)C(=O)N[C@]1(C)CCCCCCC=CCCC[C@@](C)(C(=O)N[C@@H](CO)C(=O)N[C@@H](C)C(=O)N[C@@H](C)C(N)=O)NC(=O)[C@H](CC2CCC2)NC(=O)[C@H](Cc2c[nH]c3ccccc23)NC(=O)[C@H](C)NC(=O)[C@H](Cc2c[nH]c3ccccc23)NC(=O)[C@H](Cc2ccc(O)cc2)NC(=O)[C@H](Cc2c[nH]c3ccccc23)NC1=O)[C@@H](C)O [MP-540] (Ac-[Lys(N3)][βAla]YTF[R8]WYWAW[Cba][S5]SAA-NH2; staple 6-13) | > 50600 nM | 2 µM (≈ 4.27 µg/mL) | 94.2 nM | 253 A^2 | 3.67 | – | –
CC(C)C[C@@H]1NC(=O)[C@H](C)NC(=O)[C@H](Cc2c[nH]c3ccccc23)NC(=O)[C@H](Cc2ccc(O)cc2)NC(=O)[C@H](CCC(=O)O)NC(=O)[C@](C)(NC(=O)[C@H](Cc2ccccc2)NC(=O)[C@H](CO)NC(=O)[C@@H](NC(=O)[C@H](CO)NC(=O)CNC(=O)[C@H](CO)NC(=O)[C@@H](N)CCCCN=[N+]=[N-])[C@@H](C)O)CCCCCCC=CCCC[C@@](C)(C(N)=O)NC(=O)[C@H](CC(C)C)NC1=O [MP-75496] | > 50600 nM | 10 µM (≈ 18.1 µg/mL) | 518 nM | 236 A^2 | 2.46 | – | –
CC(=O)N[C@@H](CCCCN=[N+]=[N-])C(=O)NCCC(=O)N[C@@H](CCCNC(=N)N)C(=O)N[C@H](C(=O)N[C@@H](Cc1ccccc1)C(=O)N[C@]1(C)CCCCCCC=CCCC[C@@](C)(C(=O)N[C@@H](CO)C(=O)N[C@@H](CCCNC(=N)N)C(=O)N[C@@H](C)C(N)=O)NC(=O)[C@H](CC2CCC2)NC(=O)[C@H](CCC(N)=O)NC(=O)[C@H](CCCNC(=N)N)NC(=O)[C@H](Cc2c[nH]c3ccccc23)NC(=O)[C@H](Cc2ccc(O)cc2)NC(=O)[C@H](CCC(=O)O)NC1=O)[C@@H](C)O [MP-539] (Ac-[Lys(N3)][βAla]RTF[R8]EYWRQ[Cba][S5]SRA-NH2; staple 6-13) | 13400 nM | 97.5 µM (≈ 213 µg/mL) | 293 nM | 222 A^2 | 2.4 | – | –
CC(=O)N[C@@H](CCCCN=[N+]=[N-])C(=O)NCCC(=O)N[C@@H](CC(C)C)C(=O)N(C)[C@H](C(=O)N[C@@H](Cc1ccccc1)C(=O)N[C@]1(C)CCCCCCC=CCCC[C@@](C)(C(=O)N[C@@H](CO)C(=O)N[C@@H](C)C(=O)N[C@@H](C)C(N)=O)NC(=O)[C@H](CC2CCC2)NC(=O)[C@H](CCC(N)=O)NC(=O)[C@H](C)NC(=O)[C@H](Cc2c[nH]c3ccccc23)NC(=O)[C@H](Cc2ccc(O)cc2)NC(=O)[C@H](CCC(=O)O)NC1=O)[C@@H](C)O [MP-190] | > 50000 nM | 116 µM (≈ 229 µg/mL) | 420 nM | 219 A^2 | 2.73 | – | –
CC(=O)N[C@@H](CCCCN=[N+]=[N-])C(=O)NCCC(=O)N[C@@H](CC(C)C)C(=O)N[C@@H](Cc1c[nH]c2ccccc12)C(=O)N[C@@H](Cc1ccccc1)C(=O)N[C@]1(C)CCCCCCC=CCCC[C@@](C)(C(=O)N[C@@H](CO)C(=O)N[C@@H](C)C(=O)N[C@@H](C)C(N)=O)NC(=O)[C@H](CC2CCC2)NC(=O)[C@H](CCC(N)=O)NC(=O)[C@H](C)NC(=O)[C@H](Cc2c[nH]c3ccccc23)NC(=O)[C@H](Cc2ccc(O)cc2)NC(=O)[C@H](CCC(=O)O)NC1=O [MP-1184] (Ac-[Lys(N3)][βAla]LWF[R8]EYWAQ[Cba][S5]SAA-NH2; staple 6-13) | > 50000 nM | 28.5 µM (≈ 58.6 µg/mL) | 360 nM | 239 A^2 | 3.21 | – | –
CC(=O)N[C@@H](CCCCN=[N+]=[N-])C(=O)NCCC(=O)N[C@@H](CC(C)C)C(=O)N[C@H](C(=O)N[C@@H](Cc1ccccc1)C(=O)N[C@]1(C)CCCCCCC=CCCC[C@@](C)(C(=O)N[C@@H](CO)C(=O)N[C@@H](Cc2ccccc2)C(=O)N[C@@H](Cc2ccccc2)C(N)=O)NC(=O)[C@H](CC2CCC2)NC(=O)[C@H](CCC(N)=O)NC(=O)[C@H](C)NC(=O)[C@H](Cc2c[nH]c3ccccc23)NC(=O)[C@H](Cc2ccc(O)cc2)NC(=O)[C@H](Cc2c[nH]c3ccccc23)NC1=O)[C@@H](C)O [MP-542] (Ac-[Lys(N3)][βAla]LTF[R8]WYWAQ[Cba][S5]SFF-NH2; staple 6-13) | > 50600 nM | – | 93.2 nM | 242 A^2 | 4.46 | Poorly Behaved | –
CC(=O)N[C@@H](CCCCN=[N+]=[N-])C(=O)NCCC(=O)N[C@@H](CC(C)C)C(=O)N[C@H](C(=O)N[C@@H](Cc1ccccc1)C(=O)N[C@]1(C)CCCCCCC=CCCC[C@@](C)(C(=O)N[C@@H](CO)C(=O)N[C@@H](Cc2ccccc2)C(=O)N[C@@H](Cc2ccccc2)C(N)=O)NC(=O)[C@H](CC2CCC2)NC(=O)[C@H](CCC(N)=O)NC(=O)[C@H](CO)NC(=O)[C@H](Cc2c[nH]c3ccccc23)NC(=O)[C@H](Cc2ccc(O)cc2)NC(=O)[C@H](CCC(=O)O)NC1=O)[C@@H](C)O [MP-545] (Ac-[Lys(N3)][βAla]LTF[R8]EYWSQ[Cba][S5]SFF-NH2; staple 6-13) | > 50600 nM | – | 137 nM | 241 A^2 | – | Poorly Behaved | Poorly Behaved
CC(=O)N[C@@H](CCCCN=[N+]=[N-])C(=O)NCCC(=O)N[C@@H](CC(C)C)C(=O)N[C@H](C(=O)N[C@@H](Cc1ccccc1)C(=O)N[C@]1(C)CCCCCCC=CCCC[C@@](C)(C(=O)N[C@@H](CO)C(=O)N[C@@H](C)C(=O)N[C@@H](C)C(N)=O)NC(=O)[C@H](CC2CCC2)NC(=O)[C@H](CCC(N)=O)NC(=O)[C@H](CCC(=O)O)NC(=O)[C@H](Cc2c[nH]c3ccccc23)NC(=O)[C@H](Cc2ccc(O)cc2)NC(=O)[C@H](CCC(=O)O)NC1=O)[C@@H](C)O [MP-180] | > 50000 nM | 93 µM (≈ 189 µg/mL) | 732 nM | 235 A^2 | 2.38 | – | –
CC(=O)N[C@@H](CCCCN=[N+]=[N-])C(=O)NCCC(=O)N[C@@H](CC(C)C)C(=O)NC(C)(C)C(=O)N[C@@H](Cc1ccccc1)C(=O)N[C@]1(C)CCCCCCC=CCCC[C@@](C)(C(=O)N[C@@H](CO)C(=O)N[C@@H](C)C(=O)N[C@@H](C)C(N)=O)NC(=O)[C@H](CC2CCC2)NC(=O)[C@H](CCC(N)=O)NC(=O)[C@H](C)NC(=O)[C@H](Cc2c[nH]c3ccccc23)NC(=O)[C@H](Cc2ccc(O)cc2)NC(=O)[C@H](CCC(=O)O)NC1=O [MP-169] | > 50000 nM | 61.5 µM (≈ 120 µg/mL) | 253 nM | 227 A^2 | 3.06 | – | –
CC(=O)N[C@@H](CCCCN=[N+]=[N-])C(=O)NCCC(=O)N[C@@H](CC(C)C)C(=O)N[C@H](C(=O)N[C@@H](Cc1ccccc1)C(=O)N[C@]1(C)CCCCCCC=CCCC[C@@](C)(C(=O)N[C@@H](CO)C(=O)N[C@@H](C)C(=O)N[C@@H](C)C(N)=O)NC(=O)[C@H](CC2CCC2)NC(=O)[C@H](CCC(N)=O)NC(=O)C(C)(C)NC(=O)[C@H](Cc2c[nH]c3ccccc23)NC(=O)[C@H](Cc2ccc(O)cc2)NC(=O)[C@H](CCC(=O)O)NC1=O)[C@@H](C)O [MP-170] | > 50000 nM | 92.5 µM (≈ 184 µg/mL) | 549 nM | 225 A^2 | 2.85 | – | –
